These results are taken from ChEMBL document CHEMBL1153185, “Two novel neo-clerodane diterpenoids from Scutellaria barbata” (Bioorg Med Chem Lett, 2010).

Counter-ions that a name gives are not always drawn. Active and inactive are the calls of the source. No cut-off for these calls is given here.

Common to all, as to type: functional, cell-based
One experiment relates to HL-60. The experiment in a line: Cytotoxicity against human HL60 cells by MTT assay.
In the next experiment the test system is Lewis lung carcinoma. The experiment in a line: Cytotoxicity against mouse LLC by MTT assay.
For a further experiment, the system named is MCF7. The experiment in a line: Cytotoxicity against human MCF7 cells by MTT assay. (In general: Tetrazolium dyes change colour on reduction, which living cells bring about.)

Regarding `C[C@@]12[C@@H](OC(=O)c3cccnc3)[C@H](OC(=O)c3ccccc3)[C@](C)(O)[C@](C)(/C=C/C3=CC(=O)OC3)[C@H]1CC=C[C@]2(C)O`, the result in the experiment with HL-60, with Lewis lung carcinoma and in the experiment on MCF7 was inactive. In the experiment on HL-60, `CC(=O)O[C@@H](CC1=CC(=O)OC1)[C@]1(C)[C@H]2CCC=C(C)[C@]2(C)[C@@H](OC(=O)c2cccnc2)[C@H](OC(=O)c2ccccc2)[C@]1(C)O` [BARBATELLARINES B] showed an IC50 of 41.4 µM. Still for that read-out and setting: with `COc1cccc2c1C(=O)c1c(O)c3c(c(O)c1C2=O)C[C@@](O)(C(=O)CO)C[C@@H]3O[C@H]1C[C@H](N)[C@H](O)[C@H](C)O1` [DOXORUBICIN HYDROCHLORIDE] the figure was 0.18 µM.

For orientation: IC50 means the concentration that inhibits the measured activity by half.
